This is an account of results in patent US10730851B2, “Polymorph of triaryldimethylpiperazine dihydrochloride and preparation method and application thereof” (priority 2016, dated 2020).

Where a name gives a salt, the structure may show the parent alone.

Series [1] is described as follows: Rough solubility test. Type of series: physicochemical. Conditions: water, thermodynamic from solid. On the procedure:
2.0 mg of a free base and 2.0 mg of polymorph forms B, F, P, J and O are respectively taken and placed in 3.0 mL glass bottles. Then the solvent methanol is added step by step, and ultrasound is performed to observe whether the sample is completely dissolved. If the sample is still not completely dissolved after 2.0 mL of solvent is added, the test is stopped to measure the rough solubility of the free base, polymorph forms B, F, P, J and O in methanol respectively.
Using the same method, the rough solubility of the free base, polymorph forms B, P, F, J and O in other organic solvents or water listed in Table 6 are determined respectively.

The nature of series [2]: Dynamic moisture adsorption. The class given is physicochemical.
Series [3] in a line: Relative bioavailability test. The settings on record: rat, in vivo, po. Type of series: in vivo, SPF-grade SD rats. On the procedure:
HPLC-MS/MS method is used to detect the blood drug concentration of target drugs in SPF-grade SD rats, and the relative bioavailability of 0.5% CMC-Na suspension of a free base and 0.5% CMC-Na solution of a polymorph form P are calculated and compared.
60.46 mg of a free base is accurately weighed and placed into a 15 mL centrifuge tube, 12 mL of 0.5% CMC-Na solution is measured and added into the centrifuge tube with a measuring cylinder, vortexed for 5 min, and ultrasonically dispersed for 15 min to obtain 0.5% CMC-Na suspension of free base with a concentration of 5.04 mg/ml, which is currently formulated when using and vibrated at any time during administration.
60.05 mg of a polymorph form P is accurately weighed and placed into a 15 mL centrifuge tube, 12 mL of 0.5% CMC-Na solution is measured and added into the centrifuge tube with a measuring cylinder, vortexed for 5 min, and ultrasonically dispersed for 15 min to obtain 0.5% CMC-Na solution of 5.00 mg/mL polymorph form P, which is currently formulated when using.
Twelve SPF-grade SD rats are selected and randomly divided into a free base group and a polymorph form P group with 6 rats in each group (both male and female). Animals are fasted for 12 h but have free access to water. Weighing is performed and, the administration volume of each rat is calculated according to the animal weight, so that the administration dose is 20 mg/kg·bw. During administration, the drugs are each administrated by gavage, and 0.5% CMC-Na suspension/solution of the above two target drugs are extracted by 2 mL syringe respectively. The gavage needle is inserted into the stomach from the corner of the rat's mouth and pushed the solution thereto.
Blood is collected from the fundus venous plexus of rats at 0.2 mL before (0 h) and 0.5, 1, 2, 4, 6, 8, 12 and 24 h after administration, anticoagulated with 300 IU/mL heparin (1:20) and centrifuged (3000 r/min) for 15 min. After plasma separation, the blood drug concentration of the target drug is determined by HPLC-MS/MS.
Referring to the above-mentioned bioavailability test of the polymorph form P, the bioavailability tests of polymorph forms F, O, B and J are conducted respectively. Different from the bioavailability test of the polymorph form P, rats are given 0.5% CMC-Na solution of the polymorph form F, O, B or J by gavage respectively. Other operations are the same as the above bioavailability test.

A short description of series [4]: Stability test: physical stability by XRPD under four environmental conditions. The class given is physicochemical. Conditions: for Crystal form, after nitrogen purging at 60° C. for 2 h / Crystal form, after 40° C./75% RH for one week / Crystal form, after drying at 60 ° C. overnight / Crystal form, after nitrogen purging overnight at room: XRPD; for Crystal form, after nitrogen purging at 60° C. for 2 h / Crystal form, after drying at 60 ° C. overnight / Crystal form, after nitrogen purging overnight at room: dihydrochloride; for Physical stability after standing under the four conditions: conditions 1 to 4; for Crystal form, after 40° C./75% RH for one week / Crystal form, after drying at 60 ° C. overnight: open bottle; for Crystal form, after nitrogen purging overnight at room: room temperature. On the procedure: The physical stability of polymorph forms P, F and J are studied under the following four different environmental conditions.
10 mg to 15 mg of polymorph forms P, F and J are each weighed and placed in a 1.5 mL glass bottle, and the glass bottle is placed open for one week in a constant temperature and humidity box under the conditions of 40° C. and 75% RH, and then XRPD tests are carried out on the polymorph forms P, F and J to determine whether the crystal forms of the samples change. FIGS. 11 to 13 are XRPD comparative patterns of polymorph forms P, F and J before and after one week of storage at 40° C. and 75% RH, respectively.
10 mg to 15 mg of polymorph forms P, F and J are each weighed and placed in a 1.5 mL glass bottle, and the glass bottle is placed open overnight in a constant temperature drying oven under the condition of 60° C. Then XRPD test is carried out on the polymorph forms P, F and J to determine whether the crystal forms of the samples change. FIGS. 14 to 16 are XRPD comparative patterns of the polymorph forms P, F and J before and after being placed overnight under a drying condition of 60° C., respectively.
10 mg to 15 mg of polymorph forms P, F and J are each weighed and placed in a 1.5 mL glass bottle, and nitrogen is purged for 2 h under the condition of 60° C. in a nitrogen blower, and then XRPD tests are carried out on the polymorph forms P, F and J to determine whether the crystal forms of the samples change. FIGS. 17 to 19 are XRPD comparative patterns of the polymorph forms P, F and J before and after nitrogen purging for 2 h at 60° C., respectively.
10 mg to 15 mg of polymorph forms P, F and J are each weighed and placed in a 3 mL glass bottle, nitrogen is blown overnight at room temperature in a nitrogen blower, and then XRPD tests are carried out on the polymorph forms P, F and J to determine whether the crystal forms of the samples change. FIGS. 20 to 22 are XRPD comparative patterns of the polymorph forms P, F and J before and after nitrogen purging overnight at room temperature, respectively.
Judging from XRPD comparative patterns of various polymorph forms, the physical stability properties of the polymorph forms P, F and J are obtained, and the results are shown in Table 8.

Take `CC1CCN(C(=O)c2ccc([C@H](c3cccc(O)c3)N3C[C@@H](C)N(Cc4cccc(F)c4)C[C@@H]3C)cc2)CC1` [Polymorph form B, (4-((R)-((2S,5R)-4-(3-fluorobenzyl)-(2,5-dimethylpiperazine-1-yl)(3-hydroxyphenyl)methyl)phenyl)(4-methylpiperidine-1-yl)methanone dihydrochloride]: in series [1], the Solubility was 6400 to 7200 µg/mL. Also, the “Crystal form change under dynamic moisture adsorption” value in series [2] is reported as “change into amorphous”. The “bioavailability compared with free base” value in series [3] is on record as “better bioavailability than free base”.
As for `CC1CCN(C(=O)c2ccc([C@H](c3cccc(O)c3)N3C[C@@H](C)N(Cc4cccc(F)c4)C[C@@H]3C)cc2)CC1` [Polymorph form F, (4-((R)-((2S,5R)-4-(3-fluorobenzyl)-(2,5-dimethylpiperazine-1-yl)(3-hydroxyphenyl)methyl)phenyl)(4-methylpiperidine-1-yl)methanone dihydrochloride], in series [4], the “Crystal form, after nitrogen purging at 60° C. for 2 h” value was “invariability”; the “Physical stability after standing under the four conditions” value is “good stability”; the “Crystal form, after 40° C./75% RH for one week” value is “invariability”; the “Crystal form, after drying at 60 ° C. overnight” value is “invariability”. Also, the “Crystal form, after nitrogen purging overnight at room” value in series [4] is reported as “invariability”. For the same molecule, in series [3], the “bioavailability compared with free base” value is “better bioavailability than free base”.
With `CC1CCN(C(=O)c2ccc([C@H](c3cccc(O)c3)N3C[C@@H](C)N(Cc4cccc(F)c4)C[C@@H]3C)cc2)CC1` [Polymorph form J, (4-((R)-((2S,5R)-4-(3-fluorobenzyl)-(2,5-dimethylpiperazine-1-yl)(3-hydroxyphenyl)methyl)phenyl)(4-methylpiperidine-1-yl)methanone dihydrochloride], the “Crystal form, after 40° C./75% RH for one week” value in series [4] was “invariability”. Further, the “bioavailability compared with free base” value in series [3] is given as “better bioavailability than free base”.
As to `CC1CCN(C(=O)c2ccc([C@H](c3cccc(O)c3)N3C[C@@H](C)N(Cc4cccc(F)c4)C[C@@H]3C)cc2)CC1` [Polymorph form O, (4-((R)-((2S,5R)-4-(3-fluorobenzyl)-(2,5-dimethylpiperazine-1-yl)(3-hydroxyphenyl)methyl)phenyl)(4-methylpiperidine-1-yl)methanone dihydrochloride], the “Crystal form change under dynamic moisture adsorption” value in series [2] was “change into amorphous”. The “bioavailability compared with free base” value in series [3] was “better bioavailability than free base”.
As for `CC1CCN(C(=O)c2ccc([C@H](c3cccc(O)c3)N3C[C@@H](C)N(Cc4cccc(F)c4)C[C@@H]3C)cc2)CC1` [Polymorph form P, (4-((R)-((2S,5R)-4-(3-fluorobenzyl)-(2,5-dimethylpiperazine-1-yl)(3-hydroxyphenyl)methyl)phenyl)(4-methylpiperidine-1-yl)methanone dihydrochloride], in series [4], the “Crystal form, after nitrogen purging at 60° C. for 2 h” value is “invariability”; the “Physical stability after standing under the four conditions” value is “good stability”; the “Crystal form, after 40° C./75% RH for one week” value is on record as “invariability”; the “Crystal form, after drying at 60 ° C. overnight” value is reported as “invariability”. Also, in series [4], the “Crystal form, after nitrogen purging overnight at room” value was “invariability”. Also, in series [3] (both sexes, SD, 20 mg/kg), the AUC(0-t) was determined as 584 ng·h/mL, the highest concentration (Cmax) stood at 98.1 ± 25.2 ng/mL, the Tmax was found to be 1.3 ± 0.5 h and the bioavailability came to 202%. The t1/2z in series [3] (both, SD, 20 mg/kg) was 2.5 ± 0.8 h.

Usually Solubility stands for how much of the substance goes into solution per volume. A higher Solubility goes with much dissolved substance. As usually defined, the AUC(0-t) is the area under the concentration-time curve up to a stated or last time point. A high value points to high exposure. Broadly, the Cmax is the highest concentration seen after dosing. A word on the Tmax: it is the time from dosing to the highest level.
